Experimental data from ChEMBL document CHEMBL1800040, “Quantitative structure-activity relationship study of phloroglucinol-terpene adducts as anti-leishmanial agents” (Bioorg Med Chem Lett, 2011).

System: Leishmania donovani
Test: Antileishmanial activity against Leishmania donovani promastigotes
Type: functional, organism-based

SMILES: CC(=O)c1c(O)c(C=O)c(O)c2c1O[C@]1(CC2)[C@@H]2CC[C@@H](C2)C1(C)C
- IC50 (read-out: IC50): 4.47 µM
- IC50 (read-out: pIC50 (converted)): 5.22 µM

SMILES: CC1(C)[C@H]2CC[C@H](C2)[C@]12CCc1c(O)c(C=O)c(O)c(C=O)c1O2
- IC50 (read-out: IC50): 4.07 µM
- IC50 (read-out: pIC50 (converted)): 4.24 µM

SMILES: CC(C)CC(=O)c1c(O)c2c(c(C(=O)CC(C)C)c1O)O[C@]1(CC2)[C@@H]2CC[C@@H](C2)C1(C)C
- IC50 (read-out: IC50): > 40 µg/mL

SMILES: CC(C)C[C@H]1C[C@@]2(CC[C@H]3C[C@@H]2C3(C)C)Oc2c(C=O)c(O)c(C=O)c(O)c21
- IC50 (read-out: IC50): 5.17 µM
- IC50 (read-out: pIC50 (converted)): 5.18 µM

SMILES: CC(C)C[C@@H]1C[C@@]2(CC[C@H]3C[C@@H]2C3(C)C)Oc2c(C=O)c(O)c(C=O)c(O)c21
- IC50 (read-out: IC50): 4.14 µM
- IC50 (read-out: pIC50 (converted)): 4.14 µM

SMILES: CC(=O)c1c(O)c(C=O)c2c(c1O)C[C@H]1C[C@H]3C[C@H](C3(C)C)[C@@]1(C)O2
- IC50 (read-out: IC50): 2.73 µM
- IC50 (read-out: pIC50 (converted)): 2.73 µM

SMILES: CC(=O)c1c(O)c(C=O)c(O)c2c1O[C@@]1(C)[C@@H](C2)C[C@H]2C[C@@H]1C2(C)C
- IC50 (read-out: IC50): 4.94 µM
- IC50 (read-out: pIC50 (converted)): 4.93 µM

SMILES: CC1(C)[C@H]2C[C@@H]3Cc4c(O)c(C=O)c(O)c(C=O)c4O[C@]3(C)[C@@H]1C2
- IC50 (read-out: IC50): 7.26 µM
- IC50 (read-out: pIC50 (converted)): 7.26 µM

SMILES: CC(=O)c1c(O)c(C=O)c2c(c1O)CC[C@@]1(CC[C@H]3C[C@@H]1C3(C)C)O2
- IC50 (read-out: IC50): 4.65 µM
- IC50 (read-out: pIC50 (converted)): 4.65 µM

SMILES: CC(=O)c1c(O)c(C=O)c(O)c2c1O[C@@]1(CC2)CC[C@H]2C[C@@H]1C2(C)C
- IC50 (read-out: IC50): 4.65 µM
- IC50 (read-out: pIC50 (converted)): 4.65 µM

SMILES: CC1(C)[C@H]2CC[C@@]3(CCc4c(O)c(C=O)c(O)c(C=O)c4O3)[C@@H]1C2
- IC50 (read-out: IC50): 6.36 µM
- IC50 (read-out: pIC50 (converted)): 6.35 µM

SMILES: CC(C)CC(=O)c1c(O)c2c(c(C(=O)CC(C)C)c1O)O[C@@]1(CC2)CC[C@H]2C[C@@H]1C2(C)C
- IC50 (read-out: IC50): > 40 µg/mL

SMILES: CC(C)CC(=O)c1c(O)c(C=O)c2c(c1O)C[C@H]1C[C@H]3[C@@H](C[C@@]1(C)O2)C3(C)C
- IC50 (read-out: IC50): 0.73 µM
- IC50 (read-out: pIC50 (converted)): 0.724 µM

SMILES: CC(C)CC(=O)c1c(O)c(C=O)c(O)c2c1O[C@]1(C)C[C@@H]3[C@H](C[C@@H]1C2)C3(C)C
- IC50 (read-out: IC50): 1.6 µM
- IC50 (read-out: pIC50 (converted)): 1.6 µM

SMILES: CC(=O)c1c(O)c(C=O)c2c(c1O)C[C@H]1C[C@H]3[C@@H](C[C@@]1(C)O2)C3(C)C
- IC50 (read-out: IC50): 2.76 µM
- IC50 (read-out: pIC50 (converted)): 2.76 µM

SMILES: CC(=O)c1c(O)c(C=O)c(O)c2c1O[C@]1(C)C[C@@H]3[C@H](C[C@@H]1C2)C3(C)C
- IC50 (read-out: IC50): 4.07 µM
- IC50 (read-out: pIC50 (converted)): 4.06 µM

SMILES: CC1(C)[C@@H]2C[C@@]3(C)Oc4c(C=O)c(O)c(C=O)c(O)c4C[C@H]3C[C@@H]21
- IC50 (read-out: IC50): 5.75 µM
- IC50 (read-out: pIC50 (converted)): 5.75 µM

SMILES: CC(C)CC(=O)c1c(O)c(C=O)c2c(c1O)CC[C@@]1(O2)[C@@H]2CC[C@@H](C2)C1(C)C
- IC50 (read-out: IC50): 0.93 µM
- IC50 (read-out: pIC50 (converted)): 0.931 µM

SMILES: CC(C)CC(=O)c1c(O)c(C=O)c(O)c2c1O[C@]1(CC2)[C@@H]2CC[C@@H](C2)C1(C)C
- IC50 (read-out: IC50): 4.07 µM
- IC50 (read-out: pIC50 (converted)): 3.62 µM

SMILES: CC(=O)c1c(O)c(C=O)c2c(c1O)CC[C@@]1(O2)[C@@H]2CC[C@@H](C2)C1(C)C
- IC50 (read-out: IC50): 1.25 µM
- IC50 (read-out: pIC50 (converted)): 1.25 µM

SMILES: CC1(C)[C@H]2[C@@H]1CC[C@@H]1Cc3c(O)c(C=O)c(O)c(C=O)c3O[C@@]12C
- IC50 (read-out: IC50): 5.17 µM
- IC50 (read-out: pIC50 (converted)): 6.05 µM

SMILES: CC(C)CC(=O)c1c(O)c2c(c(C(=O)CC(C)C)c1O)O[C@]1(C)C[C@@H]3[C@H](C[C@@H]1C2)C3(C)C
- IC50 (read-out: IC50): > 40 µg/mL

SMILES: CC(C)CC(=O)c1c(O)c(C=O)c2c(c1O)C[C@H]1CC[C@H]3[C@H](C3(C)C)[C@@]1(C)O2
- IC50 (read-out: IC50): 0.62 µM
- IC50 (read-out: pIC50 (converted)): 0.621 µM

SMILES: CC(C)CC(=O)c1c(O)c(C=O)c(O)c2c1O[C@@]1(CCO)[C@@H](C2)C[C@H]2C[C@@H]1C2(C)C
- IC50 (read-out: IC50): 7.68 µM
- IC50 (read-out: pIC50 (converted)): 7.69 µM

SMILES: CC(C)CC(=O)c1c(O)c(C=O)c2c(c1O)C[C@H]1C[C@H]3C[C@H](C3(C)C)[C@@]1(CCO)O2
- IC50 (read-out: IC50): 2.28 µM
- IC50 (read-out: pIC50 (converted)): 2.28 µM

SMILES: CC(C)CC(=O)c1c(O)c2c(c(C(=O)CC(C)C)c1O)O[C@@]1(CO)[C@@H](C2)C[C@H]2C[C@@H]1C2(C)C
- IC50 (read-out: IC50): 6.93 µM
- IC50 (read-out: pIC50 (converted)): 6.93 µM

SMILES: CC1(C)[C@H]2C[C@@H]3Cc4c(O)c(C=O)c(O)c(C=O)c4O[C@]3(CO)[C@@H]1C2
- IC50 (read-out: IC50): > 40 µg/mL

SMILES: CC(C)CC(=O)c1c(O)c(C=O)c(O)c2c1O[C@@]1(C)[C@H](CC[C@H]3[C@@H]1C3(C)C)C2
- IC50 (read-out: IC50): 1.42 µM
- IC50 (read-out: pIC50 (converted)): 1.42 µM

SMILES: CC(C)CC(=O)c1c(O)c(C=O)c2c(c1O)C[C@H]1C[C@H]3C[C@H](C3(C)C)[C@@]1(CO)O2
- IC50 (read-out: IC50): 4.47 µM
- IC50 (read-out: pIC50 (converted)): 4.48 µM

SMILES: CC1(C)[C@H]2C[C@@H]3Cc4c(O)c(C=O)c(O)c(C=O)c4O[C@]3(CCO)[C@@H]1C2
- IC50 (read-out: IC50): 6.1 µM
- IC50 (read-out: pIC50 (converted)): 6.11 µM

SMILES: CC(C)CC(=O)c1c(O)c2c(c(C(=O)CC(C)C)c1O)O[C@@]1(C)[C@H](CC[C@H]3[C@@H]1C3(C)C)C2
- IC50 (read-out: IC50): > 40 µg/mL

SMILES: CC(C)CC(=O)c1c(O)c(C=O)c(O)c2c1O[C@@]1(CO)[C@@H](C2)C[C@H]2C[C@@H]1C2(C)C
- IC50 (read-out: IC50): 7.45 µM
- IC50 (read-out: pIC50 (converted)): 7.45 µM

SMILES: CC(C)CC(=O)c1c(O)c2c(c(C(=O)CC(C)C)c1O)O[C@@]1(CCO)[C@@H](C2)C[C@H]2C[C@@H]1C2(C)C
- IC50 (read-out: IC50): > 40 µg/mL

SMILES: CC(C)CC(=O)c1c(O)c2c(c(C(=O)CC(C)C)c1O)O[C@@]1(C)[C@@H](C2)C[C@H]2C[C@@H]1C2(C)C
- IC50 (read-out: IC50): > 40 µg/mL

SMILES: CC(C)CC(=O)c1c(O)c(C=O)c(O)c2c1O[C@@]1(C)[C@@H](C2)C[C@H]2C[C@@H]1C2(C)C [EUGLOBAL G1]
- IC50 (read-out: IC50): 1.84 µM
- IC50 (read-out: pIC50 (converted)): 1.84 µM

SMILES: CC(C)CC(=O)c1c(O)c(C=O)c2c(c1O)C[C@H]1C[C@H]3C[C@H](C3(C)C)[C@@]1(C)O2 [EUGLOBAL G2]
- IC50 (read-out: IC50): 0.93 µM
- IC50 (read-out: pIC50 (converted)): 0.931 µM

SMILES: CC(C)CC(=O)c1c(O)c(C=O)c2c(c1O)CC[C@@]1(CC[C@H]3C[C@@H]1C3(C)C)O2 [EUGLOBAL G3]
- IC50 (read-out: IC50): 1 µM
- IC50 (read-out: pIC50 (converted)): 1.01 µM

SMILES: CC(C)CC(=O)c1c(O)c(C=O)c(O)c2c1O[C@@]1(CC2)CC[C@H]2C[C@@H]1C2(C)C [EUGLOBAL G4]
- IC50 (read-out: IC50): 3.1 µM
- IC50 (read-out: pIC50 (converted)): 3.1 µM
